ChEMBL document CHEMBL4138197, “Design, synthesis and pharmacological evaluation of N-(5-chloro-2,4-dihydroxybenzoyl)-(R)-N-arylmethyl-1,2,3,4-tetrahydro-3-isoquinolinecarboxamides as potent Hsp90 inhibitors” (Eur J Med Chem, 2018)
The source made the active and inactive calls. The rule behind the calls is not given here.

Key:
[1] = test system: MDA-MB-453; assay: Induction of apoptosis in human MDA-MB-453 cells assessed upregulation of bid expression at 0.25 uM by Western blot analysis; assay type: functional, cell-based; conditions: TDE = time-dependent effect
[2] = test system: MDA-MB-453; assay: Induction of apoptosis in human MDA-MB-453 cells assessed as early apoptotic cells at 1 uM after 48 hrs by Annexin V-FITC/propidium iodide-staining based flow cytometry (reference value: 1.65%); assay type: functional
[3] = test system: SW480; assay: Antiproliferative activity against human SW480 cells by SRB assay; assay type: functional, cell-based
[4] = test system: MDA-MB-231; assay: Antiproliferative activity against human MDA-MB-231 cells after 72 hrs by SRB assay; assay type: functional, cell-based; conditions: MDA-MB-231, 72 h
[5] = molecular target: Heat shock protein HSP 90-alpha (Homo sapiens) (UniProt P07900); assay: Inhibition of HSP90alpha in human MDA-MB-453 cells assessed as down-regulation of CDK4 levels by Western blot analysis; assay type: cell-based
[6] = test system: MDA-MB-453; assay: Induction of apoptosis in human MDA-MB-453 cells assessed as increase in cleaved PARP activity at 0.25 uM up to 48 hrs in presence of z-VAD-fmk by Western blot analysis; assay type: functional, cell-based
[7] = test system: MDA-MB-453; assay: Induction of apoptosis in human MDA-MB-453 cells assessed as late apoptotic cells at 1 uM after 48 hrs by Annexin V-FITC/propidium iodide-staining based flow cytometry (reference value: 3.40%); assay type: functional
[8] = test system: MDA-MB-453; assay: Induction of apoptosis in human MDA-MB-453 cells assessed downregulation of bcl2 expression at 0.25 uM at 48 hrs by Western blot analysis; assay type: functional, cell-based
[9] = molecular target: T1, MAP kinase p38 (Homo sapiens) (UniProt O15264+Q15759+Q16539+P53778); assay: Induction of p38 phosphorylation in human MDA-MB-453 cells at 0.25 uM after 48 hrs by Western blot analysis; assay type: cell-based
[10] = test system: HepG2; assay: Antiproliferative activity against human HepG2 cells by SRB assay; assay type: functional, cell-based
[11] = test system: MDA-MB-453; assay: Induction of apoptosis in human MDA-MB-453 cells assessed as early apoptotic cells at 4 uM after 48 hrs by Annexin V-FITC/propidium iodide-staining based flow cytometry (reference value: 1.65%); assay type: functional
[12] = test system: U-251; assay: Antiproliferative activity against human U251 cells by SRB assay; assay type: functional, cell-based
[13] = test system: MDA-MB-453; assay: Induction of apoptosis in human MDA-MB-453 cells assessed as early apoptotic cells at 0.25 uM after 48 hrs by Annexin V-FITC/propidium iodide-staining based flow cytometry (reference value: 1.65%); assay type: functional
[14] = test system: PC-3; assay: Antiproliferative activity against human PC3 cells by SRB assay; assay type: functional, cell-based
[15] = molecular target: Heat shock protein HSP 90-alpha (Homo sapiens) (UniProt P07900); assay: Inhibition of HSP90alpha in human MDA-MB-453 cells assessed as down-regulation of AKT levels by Western blot analysis; assay type: cell-based
[16] = test system: MDA-MB-453; assay: Induction of apoptosis in human MDA-MB-453 cells assessed downregulation of bcl-xl expression at 0.25 uM at 48 hrs by Western blot analysis; assay type: functional, cell-based
[17] = test system: MDA-MB-453; assay: Induction of apoptosis in human MDA-MB-453 cells assessed as increase in cleaved caspase7 activity at 0.25 uM up to 48 hrs by Western blot analysis; assay type: functional, cell-based
[18] = test system: MDA-MB-453; assay: Induction of apoptosis in human MDA-MB-453 cells assessed as increase in cleaved caspase7 activity at 0.25 uM up to 48 hrs in presence of z-VAD-fmk by Western blot analysis; assay type: functional, cell-based
[19] = test system: NCI-H1299; assay: Antiproliferative activity against human NCI-H1299 cells by SRB assay; assay type: functional, cell-based
[20] = test system: MDA-MB-453; assay: Induction of apoptosis in human MDA-MB-453 cells assessed as necrotic cells at 0.25 uM after 48 hrs by Annexin V-FITC/propidium iodide-staining based flow cytometry (reference value: 0.01%); assay type: functional
[21] = test system: MDA-MB-453; assay: Induction of apoptosis in human MDA-MB-453 cells assessed as necrotic cells at 4 uM after 48 hrs by Annexin V-FITC/propidium iodide-staining based flow cytometry (reference value: 0.01%); assay type: functional
[22] = test system: MCF7; assay: Antiproliferative activity against human MCF7 cells by SRB assay; assay type: functional, cell-based
[23] = molecular target: Heat shock protein HSP90 (Homo sapiens) (UniProt P07900+P08238); assay: Inhibition of HSP90 in human MDA-MB-453 cells assessed as suppression of TNFalpha-induced NFkappaB activation by measuring reduction in relA/p65 translocation to the nucleus at 0.25 uM after 24 hrs by Western blot analysis; assay type: cell-based
[24] = molecular target: T1, MAP kinase p38 (Homo sapiens); assay: Induction of p38 in human MDA-MB-453 cells assessed as upregulation of Hsp27 Ser82 phosphorylation at Ser82 at 0.25 uM after 2 hrs by Western blot analysis; assay type: cell-based
[25] = molecular target: Heat shock protein HSP 90-alpha (Homo sapiens) (UniProt P07900); assay: Inhibition of HSP90alpha in human MDA-MB-453 cells assessed as down-regulation of EGFR levels by Western blot analysis; assay type: cell-based
[26] = test system: HCT-116; assay: Antiproliferative activity against human HCT116 cells by SRB assay; assay type: functional, cell-based
[27] = test system: HeLa; assay: Antiproliferative activity against human HeLa cells by SRB assay; assay type: functional, cell-based
[28] = test system: A549; assay: Antiproliferative activity against human A549 cells after 72 hrs by SRB assay; assay type: functional, cell-based; conditions: A549, 72 h
[29] = test system: MDA-MB-453; assay: Induction of apoptosis in human MDA-MB-453 cells assessed as increase in cleaved caspase3 activity at 0.25 uM up to 48 hrs by Western blot analysis; assay type: functional, cell-based
[30] = test system: MDA-MB-231; assay: Antiproliferative activity against human MDA-MB-231 cells by SRB assay; assay type: functional, cell-based
[31] = molecular target: Heat shock protein HSP 90-alpha (Homo sapiens) (UniProt P07900); assay: Binding affinity to HSP90alpha in HEK293T cells assessed as induction of thermal stabilisation of HSP90alpha pre-incubated for 3 hrs followed by heating at 37 to 63 degC for 3 mins then subsequent cooling for 3 mins by Western blot-based CESTA relative to beta actin; assay type: cell-based

- IC50 [4]: 300 nM
- inhibition [5]: Dose-dependent effect
- Activity [9]: Active
- inhibition [15]: Dose-dependent effect
- inhibition [23]: Active
- Activity [24]: Active
- inhibition [25]: Dose-dependent effect
- IC50 [28]: 420 nM
- Activity [31]: Dose-dependent effect
SMILES: O=C(NCc1ccncc1)[C@H]1Cc2ccccc2CN1C(=O)c1cc(Cl)c(O)cc1O
- Activity [1]: Tde
- Activity [2]: 15.88%
- Activity [3]: Active
- Activity [6]: inactive
- Activity [7]: 15.11%
- Activity [8]: Active
- Activity [10]: Active
- Activity [11]: 23.49%
- Activity [12]: Active
- Activity [13]: 4.26%
- Activity [14]: Active
- Activity [16]: Active
- Activity [17]: Active
- Activity [18]: inactive
- Activity [19]: Active
- Activity [20]: 0.02%
- Activity [21]: 0.54%
- Activity [22]: Active
- Activity [26]: Active
- Activity [27]: Active
- Activity [29]: Active
- Activity [30]: Active
